{"source": "patent US20260284214A1", "about": "“EXATECAN DERIVATIVE AND ANTIBODY-DRUG CONJUGATE THEREOF” (priority 2023, published 2026)", "key": {"[1]": {"assay": "In-vivo pharmacokinetics of compounds in SD rats", "conditions": "intravenous; for clearance / half-life / AUC(0-t) at 8 h / Vd: rat, plasma; for AUC(0-t) at 8 h: read-out: AUC0-8 h; for Vd: read-out: Vz", "procedure": "SD rats were taken as test animals to study in-vivo pharmacokinetics behaviors after injection administration of the compounds of the present disclosure to male and female SD rats at dosages of 1 mg/kg and 3 mg/kg.\n• Species: male and female SD rats (2 female rats and 2 male rats/group) • Grade: SPF grade • Weight: about 200 g • Source: Hunan SJA Laboratory Animal Co., Ltd.\nMale and female SD rats were injected with the test sample solution, and Compound 2 of the example and the Dxd were given in a dosage of 1 mg/kg and a dosage volume of 4 mL/kg. Compound 3 of the example and the Dxd were given in a dosage of 3 mg/kg and a dosage volume of 5 mL/kg.\nPreparation of test sample solution: the test sample was dissolved with a solvent (10% DMSO-60% PEG400-30% (20% HP-β-CD-water)), and DMSO, PEG 400 and 20% HP-β-CD-water were added sequentially during preparation.\n0 before administration, and 5 minutes, 15 minutes, 0.5 hours, 1 hour, 2 hours, 3 hours, 5 hours and 8 hours after administration.\n0.2 mL of blood was collected and placed into an EDTA-2K anticoagulant tube. The anticoagulant tube was turned upside down gently to fully mix the anticoagulant (EDTA-2K) with the blood, and then immediately placed into wet ice, and plasma was centrifuged for separation within 1 hour after blood collection at 4° C. and 6800 g for 6 minutes. After centrifugation, the plasma was separated and stored in an ultra-low-temperature refrigerator as soon as possible until sample analysis."}, "[2]": {"assay": "Metabolism stability test in liver microsomes", "format": "in vitro ADME", "conditions": "human liver microsomes; for CLint scaled / half-life / microsomal CLint: pH 7.4; for microsomal CLint: read-out: CLint(mic)", "procedure": "The experiment was intended to detect metabolic stabilities of the compounds in the present disclosure in human liver microsomes.\n• Human Liver Microsomes (Corning, Cat No. 452117)\nExperimental method: each incubation system contained a phosphate buffer solution (PBS, pH 7.4), a liver microsomal protein, a to-be-tested sample (acetonitrile solution) and NADPH, incubated in water bath at 37° C., and the same volume of cold acetonitrile (comprising an internal standard) was added 0, 5, 15, 30, 45 and 60 minutes after reaction respectively to terminate the reaction. The sample solution was centrifuged, 80 μL of the supernatant was taken and 240 μL of ultrapure water was added, and the remaining amount of the prototype substrate was detected by LC-MS/MS method. The negative control was incubated with a human liver microsome NCF group (without NADPH)."}, "hERG potassium channel": {"biological_target": "hERG potassium channel (Homo sapiens, UniProt Q12809)", "sequence (Q12809 whole entry)": "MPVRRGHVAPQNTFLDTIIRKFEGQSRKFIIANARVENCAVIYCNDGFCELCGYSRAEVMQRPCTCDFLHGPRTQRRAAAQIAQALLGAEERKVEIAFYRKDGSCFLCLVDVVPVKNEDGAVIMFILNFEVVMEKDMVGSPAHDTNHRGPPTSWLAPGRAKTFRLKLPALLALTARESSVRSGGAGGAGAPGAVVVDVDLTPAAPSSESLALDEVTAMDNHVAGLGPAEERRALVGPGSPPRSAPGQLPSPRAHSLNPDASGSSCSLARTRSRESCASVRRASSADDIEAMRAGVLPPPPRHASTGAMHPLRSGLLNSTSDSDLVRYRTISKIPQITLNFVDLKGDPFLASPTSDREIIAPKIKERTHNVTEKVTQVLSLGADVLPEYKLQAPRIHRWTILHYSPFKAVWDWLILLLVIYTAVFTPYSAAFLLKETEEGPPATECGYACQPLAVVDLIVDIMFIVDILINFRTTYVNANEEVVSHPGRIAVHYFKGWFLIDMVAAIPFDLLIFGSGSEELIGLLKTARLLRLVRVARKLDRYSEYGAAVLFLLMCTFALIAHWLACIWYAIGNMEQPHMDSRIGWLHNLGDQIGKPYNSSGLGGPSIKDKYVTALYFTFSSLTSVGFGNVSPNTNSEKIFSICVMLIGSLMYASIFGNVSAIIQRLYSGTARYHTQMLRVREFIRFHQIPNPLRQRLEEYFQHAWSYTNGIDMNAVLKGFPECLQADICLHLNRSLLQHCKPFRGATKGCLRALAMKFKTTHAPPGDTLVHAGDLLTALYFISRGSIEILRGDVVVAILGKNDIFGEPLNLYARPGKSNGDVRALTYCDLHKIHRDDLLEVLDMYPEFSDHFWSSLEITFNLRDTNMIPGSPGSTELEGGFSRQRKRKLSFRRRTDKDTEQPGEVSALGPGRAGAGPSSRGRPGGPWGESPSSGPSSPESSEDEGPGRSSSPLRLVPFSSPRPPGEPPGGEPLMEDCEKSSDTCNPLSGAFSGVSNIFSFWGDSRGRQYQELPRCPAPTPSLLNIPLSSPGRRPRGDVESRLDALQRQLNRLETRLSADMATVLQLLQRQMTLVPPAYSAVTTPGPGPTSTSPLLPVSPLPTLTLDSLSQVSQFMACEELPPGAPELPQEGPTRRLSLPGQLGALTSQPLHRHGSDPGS", "assay": "hERG experiment, manual patch clamp", "format": "cell-based", "conditions": "HEK-293 cells stably expressing hERG; for inhibition at 10 µM: human, read-out: hERG current inhibition rate % (Mean ± SE, n = 2)", "procedure": "Inhibitory effects of the compound of Example 2, the compound of Example 3 and Dxd on an hERG potassium channel were studied by a manual patch clamp technique (a gold standard of hERG safety evaluation), and the risk of ventricular repolarization toxicity caused was evaluated.\nThe weighed test sample was prepared into a 10 mM stock solution with DMSO, and then the stock solution of the test object was diluted into 3.33 mM intermediate dilution with DMSO. Then, 30 μL of the dilution was added into 10 mL of extracellular fluid to prepare 10 μM working solution, it was ensured that a DMSO content was 0.3%, then 50 μL of F68 was added to the extracellular fluid to enhance a solubility of the test object, and an F68 concentration was 0.5%. Solutions at all concentrations were subjected to ultrasound treatment for 20 minutes. The solubility of the sample was visually observed, and there was no visible precipitation in the 10 μM to-be-tested solution of the test object.\nAn HEK-293 cell line stably expressing the hERG potassium channel was adopted, and hERG potassium channel cells were purchased from Creacell Company (article number: A-0320). Cell culture method:\nThe HEK-293 cell line stably expressing the hERG potassium channel was cultured in a DMEM culture medium containing 10% fetal bovine serum and 0.8 mg/mL G418 at a culture temperature of 37° C. under a carbon dioxide concentration of 5%.\nCell passage: the old culture medium was removed, and the cells were washed once with PBS, then 1 mL of TrypLE™ Express solution was added, and the mixture was incubated at 37° C. for about 0.5 minutes. When the cells were separated from a dish bottom, about 5 mL of complete culture medium preheated at 37° C. was added. A cell suspension was gently blown with a straw to separate the aggregated cells. The cell suspension was transferred to a sterile centrifuge tube and centrifuged at 1000 rpm for 5 minutes to collect the cells. […]\nAn inhibitory effect of the test object on the hERG channel was detected by the manual patch clamp technique."}}, "note": "Where two headings read alike, the source gives them in different places."}
{"smiles": "C#CCN(CCO)C(=O)N[C@H]1CCc2c(C)c(F)cc3nc4c(c1c23)Cn1c-4cc2c(c1=O)COC(=O)[C@]2(O)CC", "note": "[Example 2]", "values": [{"measurement": "AUC0-8 h", "setting": "[1]; 1 mg/kg", "value": 77.9, "unit": "ng·h/mL"}, {"measurement": "CL", "setting": "[1]; 1 mg/kg", "value": 12700, "unit": "mL/min/kg"}, {"measurement": "T1/2", "setting": "[1]; 1 mg/kg", "value": 1.59, "unit": "h"}, {"measurement": "Vz", "setting": "[1]; 1 mg/kg", "value": 29, "unit": "L/kg"}, {"measurement": "CLint(liver)", "setting": "[2]", "value": 20.0, "unit": "mL/min/kg"}, {"measurement": "CLint(mic)", "setting": "[2]", "value": 22.2, "unit": "µL/min/mg"}, {"measurement": "T1/2", "setting": "[2]; NADPH, 37° C.", "value": 1.04, "unit": "h"}, {"measurement": "hERG current inhibition rate % (Mean ± SE, n = 2)", "setting": "hERG potassium channel; 10 μM", "value": "2.89% ± 1.86%"}]}
{"smiles": "CC[C@@]1(O)C(=O)OCc2c1cc1n(c2=O)Cc2c-1nc1cc(F)c(C)c3c1c2[C@@H](NC(=O)CO)CC3", "note": "[Dxd]", "values": [{"measurement": "clearance", "setting": "[1]; 1 mg/kg", "value": 69.2, "unit": "mL/min/kg"}, {"measurement": "half-life", "setting": "[1]; 1 mg/kg", "value": 1.3, "unit": "h"}, {"measurement": "AUC(0-t) at 8 h", "setting": "[1]; 1 mg/kg", "value": 240, "unit": "ng·h/mL"}, {"measurement": "Vd", "setting": "[1]; 1 mg/kg", "value": 7.96, "unit": "L/kg"}, {"measurement": "clearance", "setting": "[1]; 3 mg/kg", "value": 65.7, "unit": "mL/min/kg"}, {"measurement": "half-life", "setting": "[1]; 3 mg/kg", "value": 1.96, "unit": "h"}, {"measurement": "AUC(0-t) at 8 h", "setting": "[1]; 3 mg/kg", "value": 760, "unit": "ng·h/mL"}, {"measurement": "Vd", "setting": "[1]; 3 mg/kg", "value": 10.9, "unit": "L/kg"}, {"measurement": "CLint scaled", "setting": "[2]", "value": 12.3, "unit": "mL/min/kg"}, {"measurement": "half-life", "setting": "[2]; NADPH, 37° C.", "value": 1.69, "unit": "h"}, {"measurement": "microsomal CLint", "setting": "[2]", "value": 13.6, "unit": "µL/min/mg"}, {"measurement": "inhibition at 10 µM", "setting": "hERG potassium channel", "value": 10.3, "unit": "%"}]}
{"smiles": "C=CCN(CCO)C(=O)N[C@H]1CCc2c(C)c(F)cc3nc4c(c1c23)Cn1c-4cc2c(c1=O)COC(=O)[C@]2(O)CC", "note": "[Example 3, 1-allyl-3-((1S,9S)-9-ethyl-5-fluoro-9-hydroxy-4-methyl-10,13-dioxo-2,3,9,10,13,15-hexahydro-1H,12H-benzo[de]pyrano[3′,4′:6,7]indolizino[1,2-b]quinolin-1-yl)-1-(2-hydroxyethyl)urea]", "values": [{"measurement": "clearance", "setting": "[1]; 3 mg/kg", "value": 124, "unit": "mL/min/kg"}, {"measurement": "half-life", "setting": "[1]; 3 mg/kg", "value": 1.73, "unit": "h"}, {"measurement": "AUC(0-t) at 8 h", "setting": "[1]; 3 mg/kg", "value": 405, "unit": "ng·h/mL"}, {"measurement": "Vd", "setting": "[1]; 3 mg/kg", "value": 18.7, "unit": "L/kg"}, {"measurement": "CLint scaled", "setting": "[2]", "value": 23.7, "unit": "mL/min/kg"}, {"measurement": "half-life", "setting": "[2]; NADPH, 37° C.", "value": 0.877, "unit": "h"}, {"measurement": "microsomal CLint", "setting": "[2]", "value": 26.4, "unit": "µL/min/mg"}, {"measurement": "inhibition at 10 µM", "setting": "hERG potassium channel", "value": 15.8, "unit": "%"}]}
